Counter-ions that a name gives are not always drawn.

Chain of TrkA (P04629 33-796): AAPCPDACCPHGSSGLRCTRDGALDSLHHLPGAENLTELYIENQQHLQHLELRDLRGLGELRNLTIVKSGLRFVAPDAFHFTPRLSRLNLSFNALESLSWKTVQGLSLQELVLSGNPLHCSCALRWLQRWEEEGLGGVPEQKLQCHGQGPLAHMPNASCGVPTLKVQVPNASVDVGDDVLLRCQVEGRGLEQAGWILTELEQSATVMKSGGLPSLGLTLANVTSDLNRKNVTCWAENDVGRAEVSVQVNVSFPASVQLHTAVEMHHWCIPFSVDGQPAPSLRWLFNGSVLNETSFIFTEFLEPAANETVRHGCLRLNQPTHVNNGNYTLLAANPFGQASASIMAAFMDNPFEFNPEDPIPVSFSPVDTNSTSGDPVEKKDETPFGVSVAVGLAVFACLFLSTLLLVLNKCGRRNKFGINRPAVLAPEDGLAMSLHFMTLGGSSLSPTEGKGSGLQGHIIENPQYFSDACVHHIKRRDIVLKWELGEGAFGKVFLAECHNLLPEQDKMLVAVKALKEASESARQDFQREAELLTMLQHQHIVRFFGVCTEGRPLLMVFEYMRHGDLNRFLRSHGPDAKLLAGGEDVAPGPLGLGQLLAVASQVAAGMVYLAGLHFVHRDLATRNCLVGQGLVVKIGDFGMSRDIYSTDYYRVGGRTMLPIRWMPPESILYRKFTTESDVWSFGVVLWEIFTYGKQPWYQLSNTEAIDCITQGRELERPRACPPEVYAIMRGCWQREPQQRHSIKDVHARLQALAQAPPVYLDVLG

In this assay the target is TrkA (Homo sapiens (Human), UniProt P04629). The assay can be described thus: TrkA Omnia Assay. The conditions noted are these: averaged IC50; 20 nM enzyme, 500 μM ATP, 10 μM peptide substrate. The assay is classed as biochemical. In a few lines:
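Continuous fluorescent kinase read-out (ex 360 nm, em 485 nm) over 70 min, with initial rates fitted to 4- or 5-parameter logistic curves for IC50. Final conditions: 500 μM ATP, 10 μM Omnia Tyr Peptide #4, 20 nM TrkA, MOPS pH 7.5 buffer with MgCl2 and Triton X-100; enzyme and compound preincubated 10 min at ambient temperature.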
Consider `CCOc1cc(NC(=O)N[C@@H]2CN(CCOC)C[C@H]2c2ccc(F)c(F)c2)n(-c2ccccc2)n1` [Example 146, 1-((3S,4R)-4-(3,4-difluorophenyl)-1-(2-methoxyethyl)pyrrolidin-3-yl)-3-(3-ethoxy-1-phenyl-1H-pyrazol-5-yl)urea], for which the IC50 (commonly the point on the concentration scale where inhibition reaches its midpoint) was below 100 nM.

In turn, `CCOc1nn(-c2ccccc2)c(NC(=O)N[C@@H]2CN(CCOC)C[C@H]2c2ccc(F)cc2)c1C` [Example 147, 1-(3-ethoxy-4-methyl-1-phenyl-1H-pyrazol-5-yl)-3-((3S,4R)-4-(4-fluorophenyl)-1-(2-methoxyethyl)pyrrolidin-3-yl)urea] came in with an IC50 below 100 nM.

Turning to `CCOc1nn(-c2ccccc2)c(NC(=O)N[C@@H]2CN(CCOC)C[C@H]2c2cccc(F)c2)c1C` [Example 148, 1-(3-ethoxy-4-methyl-1-phenyl-1H-pyrazol-5-yl)-3-((3S,4R)-4-(3-fluorophenyl)-1-(2-methoxyethyl)pyrrolidin-3-yl)urea], the IC50 is below 100 nM.

Compound `COCCN1C[C@@H](NC(=O)Nc2c(C)c(OCCO)nn2-c2ccccc2)[C@H](c2cc(F)cc(F)c2)C1` [Example 149, 1-((3S,4R)-4-(3,5-difluorophenyl)-1-(2-methoxyethyl)pyrrolidin-3-yl)-3-(3-(2-hydroxy-ethoxy)-4-methyl-1-phenyl-1H-pyrazol-5-yl)urea] gave an IC50 below 100 nM.

For the compound `COCCN1C[C@@H](NC(=O)Nc2c3c(nn2C2CCCCC2)CCC3)[C@H](c2ccc(F)c(F)c2)C1` [Example 150, 1-(2-cyclohexyl-2,4,5,6-tetrahydrocyclopenta [c]pyrazol-3-yl)-3-((3S,4R)-4-(3,4-difluorophenyl)-1-(2-methoxyethyl)pyrrolidin-3-yl)urea], the IC50 was below 100 nM.

Take `COCCN1C[C@@H](NC(=O)Nc2c3c(nn2-c2ccncc2)CCC3)[C@H](c2ccccc2)C1` [Example 151, 1-((3S,4R)-1-(2-methoxyethyl)-4-phenylpyrrolidin-3-yl)-3-(2-(pyridin-4-yl)-2,4,5,6-tetrahydrocyclopenta[c]pyrazol-3-yl)urea]: the IC50 is below 100 nM.

`COCCN1C[C@@H](NC(=O)Nc2cc(-c3cnc(C)cn3)nn2C)[C@H](c2ccc(F)c(F)c2)C1` [Example 152, 1-((3S,4R)-4-(3,4-difluorophenyl)-1-(2-methoxyethyl)pyrrolidin-3-yl)-3-(1-methyl-3-(5-methylpyrazin-2-yl)-1H-pyrazol-5-yl)urea]: the IC50 is below 100 nM.

As for `COCCN1C[C@@H](NC(=O)Nc2c(C)c(-c3cnc(C)cn3)nn2C)[C@H](c2ccc(F)c(F)c2)C1` [Example 153, 1-((3S,4R)-4-(3,4-difluorophenyl)-1-(2-methoxyethyl)pyrrolidin-3-yl)-3-(1,4-dimethyl-3-(5-methylpyrazin-2-yl)-1H-pyrazol-5-yl) urea], the IC50 is 100 to 1000 nM.

Take `CCOC(=O)c1cnn(-c2ccccc2)c1NC(=O)N[C@@H]1CN(CCOC)C[C@H]1c1ccc(F)c(F)c1` [Example 154, ethyl 5-(3-((3S,4R)-4-(3,4-difluorophenyl)-1-(2-methoxyethyl)pyrrolidin-3-yl)ureido)-1-phenyl-1H-pyrazole-4-carboxylate]: the IC50 lay in the range of 1000 to 10000 nM.

In turn, `COCCN1C[C@@H](NC(=O)Nc2cc(-c3cnccn3)nn2C)[C@H](c2ccc(F)c(F)c2)C1` [Example 155, 1-((3S,4R)-4-(3,4-difluorophenyl)-1-(2-methoxyethyl)pyrrolidin-3-yl)-3-(1-methyl-3-(pyrazin-2-yl)-1H-pyrazol-5-yl)urea] yielded an IC50 below 100 nM.

`COCCN1C[C@@H](NC(=O)Nc2c(-c3ccccc3)c(OC)nn2C)[C@H](c2ccc(F)c(F)c2)C1` [Example 156, 1-((3S,4R)-4-(3,4-difluorophenyl)-1-(2-methoxyethyl)pyrrolidin-3-yl)-3-(3-methoxy-1-methyl-4-phenyl-1H-pyrazol-5-yl)urea] showed an IC50 below 100 nM.

As for `CCOc1nn(C)c(NC(=O)N[C@@H]2CN(CCOC)C[C@H]2c2ccc(F)c(F)c2)c1-c1ccccc1` [Example 157, 1-((3S,4R)-4-(3,4-difluorophenyl)-1-(2-methoxyethyl)pyrrolidin-3-yl)-3-(3-ethoxy-1-methyl-4-phenyl-1H-pyrazol-5-yl)urea], the IC50 was below 100 nM.

`COCCN1C[C@@H](NC(=O)Nc2c3c(nn2-c2ccccc2)CNC3)[C@H](c2ccccc2)C1` [Example 158, 1-((3S,4R)-1-(2-methoxyethyl)-4-phenylpyrrolidin-3-yl)-3-(2-phenyl-2,4,5,6-tetrahydropyrrolo[3,4-c]pyrazol-3-yl)urea dihydrochloride]: the IC50 lay within 1000 to 10000 nM.

Take `COCCN1C[C@@H](NC(=O)Nc2c3c(nn2-c2ccccc2)CN(C(C)=O)C3)[C@H](c2ccccc2)C1` [Example 159, 1-(5-acetyl-2-phenyl-2,4,5,6-tetrahydropyrrolo[3,4-c]pyrazol-3-yl)-3-((3S,4R)-1-(2-methoxyethyl)-4-phenylpyrrolidin-3-yl)urea]: the IC50 lay within 100 to 1000 nM.

`COCCN1C[C@@H](NC(=O)Nc2c(CO)c(COC)nn2-c2ccccc2)[C@H](c2ccc(F)c(F)c2)C1` [Example 160, 1-((3S,4R)-4-(3,4-difluorophenyl)-1-(2-methoxyethyl)pyrrolidin-3-yl)-3-(4-(hydroxymethyl)-3-(methoxymethyl)-1-phenyl-1H-pyrazol-5-yl)urea]: the IC50 lay within 100 to 1000 nM.

Compound `COCCN1C[C@@H](NC(=O)Nc2cc(-c3ccc(C(=O)O)cc3)nn2C)[C@H](c2ccc(F)c(F)c2)C1` [Example 161, 4-(5-(3-((3S,4R)-4-(3,4-difluorophenyl)-1-(2-methoxyethyl)pyrrolidin-3-yl)ureido)-1-methyl-1H-pyrazol-3-yl)benzoic acid] registered an IC50 below 100 nM.

On to `COCCN1C[C@@H](NC(=O)Nc2cc(-c3ccc(C(N)=O)cc3)nn2C)[C@H](c2ccc(F)c(F)c2)C1` [Example 162, 4-(5-(3-((3S,4R)-4-(3,4-difluorophenyl)-1-(2-methoxyethyl)pyrrolidin-3-yl)ureido)-1-methyl-1H-pyrazol-3-yl)benzamide], for which the IC50 was below 100 nM.

As for `CNC(=O)c1ccc(-c2cc(NC(=O)N[C@@H]3CN(CCOC)C[C@H]3c3ccc(F)c(F)c3)n(C)n2)cc1` [Example 163, 4-(5-(3-((3S,4R)-4-(3,4-difluorophenyl)-1-(2-methoxyethyl)pyrrolidin-3-yl)ureido)-1-methyl-1H-pyrazol-3-yl)-N-methylbenzamide], the IC50 is below 100 nM.

`COCCN1C[C@@H](NC(=O)Nc2cc(-c3ccc(CO)cc3)nn2C)[C@H](c2ccc(F)c(F)c2)C1` [Example 165, 1-((3S,4R)-4-(3,4-difluorophenyl)-1-(2-methoxyethyl)pyrrolidin-3-yl)-3-(3-(4-(hydroxymethyl)phenyl)-1-methyl-1H-pyrazol-5-yl)urea] had an IC50 below 100 nM.

Compound `COCCN1C[C@@H](NC(=O)Nc2cc(-c3ccc(S(C)(=O)=O)cc3)nn2C)[C@H](c2ccc(F)c(F)c2)C1` [Example 166, 1-((3S,4R)-4-(3,4-difluorophenyl)-1-(2-methoxyethyl)pyrrolidin-3-yl)-3-(1-methyl-3-(4-(methylsulfonyl)phenyl)-1H-pyrazol-5-yl)urea] had an IC50 below 100 nM.

`COCCN1C[C@@H](NC(=O)Nc2c(F)c(C)nn2-c2ccccc2)[C@H](c2ccc(F)c(F)c2)C1` [Example 167, 1-((3S,4R)-4-(3,4-difluorophenyl)-1-(2-methoxyethyl)pyrrolidin-3-yl)-3-(4-fluoro-3-methyl-1-phenyl-1H-pyrazol-5-yl)urea] registered an IC50 below 100 nM.

For the origin of these results see patent publication US10323022B2, “Pyrrolidinyl urea, pyrrolidinyl thiourea and pyrrolidinyl guanidine compounds as TrkA kinase inhibitors” (Array BioPharma Inc., priority 2011, dated 2019).
